Tests used:
cortical neurons = test: Cortical neuron survival assay against NMDA excitotoxicity (LDH); format: cell-based, Sprague-Dawley rats; details: 30 μM 24 hrs, NMDA 10-200 μM 20 min; at high concentrations of NMDA
Description: FIG. 12. Derivatives of DA001 rescue the cortical neurons from NMDA excitotoxicity. Cortical neurons were treated with compounds derived from of DA001 (30 μM) 24 hours prior to NMDA treatment. LDH released into the medium were measured 24 hours after NMDA treatment. Data are expressed as mean±s.e.m. and compared to solvent control (DMSO). *=P<0.05.
Hippocampal neurons/cortical neurons were prepared from embryonic day 18 Sprague-Dawley rats. […] Afterwards, cells were incubated in growth medium for 18-24 hours and detected with Cytotoxicity Detection Kit (1644793, Roche).
Cortical neurons were treated with DA021 or DA034 and subsequently subjected to varying concentrations of NMDA. […] LDH release into the medium was then measured.
Compounds with strong protective effect (>80% survival) against NMDA excitotoxicity are prototype DA001, derivatives DA010, DA021, DA034, DA040, DA081 and DA088. […] LDH released into the medium were measured 24 hours after NMDA treatment. Data are expressed as averaged percentage of cell survival (±s.e.m) calculated against solvent control (DMSO) and compared to no NMDA control (set as 100% survival). […]

[1] = system: phosphorylated STAT3, STAT4, STAT6 in splenocytes of EAE mice; test: Western blot of phosphorylated STAT proteins in EAE splenocytes; format: cell-based; details: exogenous 30 μM, MOG 25 μg/mL, splenocytes of vehicle-treated EAE mice
Description: On day 21, EAE mice were sacrificed by cervical dislocation and spleens were removed aseptically. The removed spleens were then cut with sterilized scissors and strained through […] mesh (BD Bioscience) with a plunger of 5 mL syringe (BD Bioscience) in 9 mL of RPMI 1640 (Invitrogen) with 100 U/mL penicillin and 100 μg/mL streptomycin (Sigma). The cell mixture was then added to 9 mL of Lympholyte (Cedarlane Laboratories) for gradient separation of splenocytes from red bloods cells by centrifugation at 1500 g for 20 min. After the centrifugation, the lympholyte layer containing splenocytes were carefully removed and washed with 10 mL of RPMI 1640 at 800 g for 10 min for three times. The isolated splenocytes were seeded onto different plate format and cultured with RPMI 1640 medium (Invitrogen) supplement with 10% heat inactivated fetal bovine serum (Invitrogen) and 100 U/mL penicillin and 100 μg/mL streptomycin at 37° C. CO2 incubator.
Splenocytes of EAE mice were cultured at the density of 1×10^7 cells in 6-well plates (Falcon) and treated with the absence or presence of the MOG peptide (25 μg/mL) (Hooke Laboratories), DA001, and DA021 (30 μM) for 24 h. After overnight incubation, the splenocytes were lysed with RIPA containing antipain dihydrochloride, trypsin inhibitor, leupeptin, aprotinin, sodium orthovanadate, benzamidine and phenyl methane sulphonyl fluoride. After centrifugation at 14000 rpm for 15 min, 4° C., protein concentrations were determined by Dc Protein Assay kit (Bio-Rad). 20 μg of each sample was subjected to 10% SDS-PAGE with 20 mA for 3 h. Immunoblot analysis was performed by transfer of proteins onto nitrocellulose membranes using a mini trans-blot apparatus (Bio-Rad). After 2 h blocking with milk, the membranes were incubated overnight at 4° C. with specific primary Abs (1:1000): anti-phospho-Stat 3 (Cell signaling), anti-phospho-Stat 4 (BD Bioscience), and anti-phospho-Stat 6 (Cell signaling). Anti-α-tubulin (Sigma) was used as a loading control. After washing, subsequent incubation with anti-rabbit or anti-mouse HRP-conjugated secondary antibody (1:3000) (Cell Signaling) for 1 h at room temperature was carried out. The signal was detected by ECL Western blot detection kit (GE Healthcare).
The efficacy of DA compounds in modulating the expression of pro-inflammation proteins was examined. Western blot analysis was performed on cultured splenocytes isolated from the spleen of EAE mice and the expression of signal transducers and activators of transcription (STAT) proteins was examined in response to exogenous treatments of MOG (25 μg/mL), DA001 (30 μM) and DA021 (30 μM). Exogenous addition of MOG [MOG (Ex)] to EAE splenocytes is shown to robustly increase the phosphorylation of STAT3, STAT4, and STAT6.
Western blot analysis was performed as described in the methodology.

C=C(C)[C@@H]1CC[C@]2(/C=N/O)CC[C@]3(C)C(CCC4[C@@]5(C)CCC(=O)[C@@](C)(CO)[C@@H]5CC[C@]43C)C12 (stereo partly shown) [DA021]
cell death (LDH release) vs DMSO control (cortical neurons): significant reduction in cell death
MOG-induced STAT3 phosphorylation [1]: significantly decreased
MOG-induced STAT4 phosphorylation [1]: significantly decreased
STAT6 phosphorylation [1]: marked decrease

C=C(C)[C@@H]1CC[C@]2(C(=O)O)CC[C@]3(C)C(CC[C@@H]4[C@@]5(C)CC[C@H](O[C@@H]6OC[C@H](O)[C@H](O)[C@H]6O[C@@H]6O[C@@H](C)[C@H](O)[C@@H](O)[C@H]6O)[C@@](C)(CO)[C@@H]5CC[C@]43C)[C@@H]12 (stereo partly drawn) [DA001, 3-O-[α-L-rhamnopyranosyl-(1→2)-α-L-arabinopyranosyl]-3,23-dihydroxy-20(29)-lupen-28-oic acid]
MOG-induced STAT3 phosphorylation [1]: significantly decreased
MOG-induced STAT4 phosphorylation [1]: significantly decreased

CC(=O)OC[C@]12CC[C@@H](C3(C)CO3)C1C1CCC3[C@@]4(C)CC[C@H](O)[C@@](C)(CO)[C@@H]4CC[C@@]3(C)[C@]1(C)CC2 (stereo partly shown) [DA034]
cell death (LDH release) vs DMSO control (cortical neurons): significant reduction in cell death
